The values below come from patent US11034654B2, “2,3-dihydroisoindole-1-carboxamides useful as ROR-gamma modulators” (AstraZeneca AB, priority 2017, dated 2021).

Structures are written as SMILES. A value given as a limit tells only on which side of the number the result lay.

For assay [1], the target named is T1, RORγ ligand binding domain (Homo sapiens, UniProt P51449). As to the kind of experiment: RORγ radioligand competition binding assay (SPA). The conditions noted are these: competition with tritiated 2-(4-(ethylsulfonyl)phenyl)-N-(4-(2-(methoxymethyl)phenyl)thiophen-2-yl)acetamide (25 nM), hRORγ LBD. An excerpt:
RORγ Radioligand Competition Binding Assay The aim of this assay is to identify compounds which bind to the RORγ ligand binding domain, by competing with tritiated 2-(4-(ethylsulfonyl)phenyl)-N-(4-(2-(methoxymethyl)phenyl)thiophen-2-yl)acetamide. Human RORγ (Ligand Binding Domain (RORγ LBD) was expressed in E. coli (BL21DE3 Star) as a fusion protein: N-6×HN-Avi-GST-TCS-hRORγ LBD (S258-K518) subcloned into pET24a(+). The LBD (258-518) is underlined in the protein sequence: The scintillation proximity assay (SPA) was run in white polystyrene flat-bottom 384-well plates (Greiner, cat. No. 781075). Assays were carried out in 40 μl reaction volumes. Various concentrations of test ligands in 0.4 microlitres of DMSO were added to assay plates using an acoustic liquid dispenser. 4 nM purified N-(HN)6-GST-TCS-hRORγ (258-518) was mixed with 40 micrograms Yttrium oxide (YOx) glutathione SPA imaging beads in assay buffer (20 mM Tris, 150 mM NaCl, 10% Glycerol, 0.25% CHAPS, 1 mM TCEP) prior to adding 30 microlitres to test ligands. Assay plates were incubated for one hour at room temperature before adding 10 microlitres tritiated 2-(4-(ethylsulfonyl)phenyl)-N-(4-(2-(methoxymethyl)phenyl)thiophen-2-yl)acetamide to test plates in assay buffer (final concentration, 25 nM). Test plates were incubated for 16 hours and read using a LEADseeker Multimodality imaging instrument. The raw data was analysed and IC50 and Ki values for the compounds were calculated using Genedata Screener software. Raw data was transformed to % effect using equation 1: Compound % effect=100*[(X−min)/(max−min)], where X represents the normalized value for the compound based on the Min (vehicle) and Max (reference compound) inhibition controls. The concentration of test ligand that inhibited radioligand binding by 50% (i.e., the IC50) was calculated by plotting the % effect versus test ligand concentration and fitting the data using the Genedata Screener Smart fit algorithm. Ki is calculated from the IC50 value using the equation Ki=IC50/1+[L]/Kd) where [L]=25 nmol/L and Kd=17 nmol/L
Background: Displacement assays read how much labelled ligand stays bound in the presence of the test substance.

In a further assay the test system is human TH17 cells. The assay can be described thus: Inhibition of IL-17 release from human TH17 cells. Type of assay: cell-based. The following applies: 96 h; isolated human TH17 cells cultured 4 days, IL-17A in supernatant by HTRF; read-out: pIC50 IL-17 release (converted). The text has this:
Inhibition of IL-17 Release from Human TH17 Cells
This test is designed to screen compounds for their inhibitory effect on the release of IL-17 from isolated and cultured human TH17 cells.
Peripheral blood mononuclear cells (PBMC) were isolated from heparin treated human whole blood from healthy donors by density gradient centrifugation. TH17 cells (CD4+CXCR3−CCR6+) were enriched using a human TH17 Cell Enrichment Kit (Stemcell Technologies) according to the manufacturer's protocol. The isolated TH17 cells were activated with aCD3aCD28 beads (MACS Miltenyi) and cultured in X-Vivo15 medium (Lonza) supplemented with L-glutamine, β-mercaptoethanol and a cytokine cocktail consisting of; IL-2, IL-23, IL-1β, IL-6, TGF-β. Cells were seeded at 8000 cells/well in a 384-plate (Corning, #3707) in the presence of compounds or DMSO and cultured for 4 days (37° C., 5% CO2). On day 4 supernatants were collected and IL-17A was measured using a Human IL-17 HTRF Assay kit (Cisbio Bioassays) according to the manufacturer's protocol. The IC50 values for the tested compounds was calculated using Genedata Screener® software (Genedata) using the following calculation method; Compound % effect=100*[(X−min)/(max−min)], where X represents the normalized value for the compound based on the Min (DMSO) and Max (compound 3-(1,3-benzodioxol-5-yl)-1-(3,5-dimethylpiperidin-1-yl)-3-(2-hydroxy-4,6-dimethoxyphenyl)propan-1-one at 10 μM, described in J. R. Hu et al. ACS Med. Chem. Lett. 2013, 4, 79-84) inhibition controls. Results

For assay [2], the target named is T1, RORγ ligand binding domain. As to the kind of experiment: RORγ co-factor recruitment assay (FRET). Type of assay: biochemical. On the set-up: made in house; host or cells: E. coli BL21DE3 Star. The following applies: inhibition of recruitment of SRC-1 peptide (NCOA1_677-700) to hRORγ LBD, HTRF read-out. An excerpt:
RORγ Co-Factor Recruitment Assay A high throughput coactivator binding assay for the identification of inverse agonists of the recruitment of peptide SRC-1 (NCOA1_677-_700) to the RORγ ligand binding domain was established. The ligand binding domain (LBD) of human RORγ was expressed in E. coli (BL21DE3 Star) as a fusion protein: N-6×HN-MBP-Avi-TCS-hRORγLBD(P260-K518) subcloned into pET24a(+). The LBD (P260-K518) is underlined in the protein sequence: The assay was run in black 384 well plates (Greiner cat no: 784900). Various concentrations of test ligands in 0.1 microlitres DMSO were dispensed to assay plates using an Echo acoustic dispenser. Two pre-mixes were prepared and incubated for 1 h at room temp in the dark. Pre-mix 1 comprised 100 nM Protein (Biotinylated HN-Avi-MBP-TCS-hRORγ (258-518)) and 60 nM Streptavidin APC in assay buffer, 50 mM MOPS pH7.4, 50 mM KF, 0.003% (w/v) CHAPS, 10 mM DTT and 0.01% (w/v) BSA and pre-mix 2 comprised 160 nM biotinylated SRC-1 peptide (NCOA1-677-700) and 20 nM Europium-W8044 labelled Streptavidin in assay buffer. Five microlitres of pre-mix 2 was dispensed to assay plates containing 0.1 microlitres of test compound and was incubated for 15 min prior to adding five microlitres of pre-mix 1. Plates were incubated at rt for 1 hour in the dark, prior to reading in a Pherastar multi-mode plate reader using HTRF filter set (ex 320, em 612 and 665). The FRET signal at 665 nm was divided by the signal at 612 nm and multiplied by 10,000 to generate a signal ratio value for each well. The raw data was transformed to % effect using the equation: Compound % effect=100*[(X−min)/(max−min)], where X represents the normalized value for the compound based on the Min (vehicle) and Max (reference compound) inhibition control. The concentration of test ligand that inhibited the activity by 50% (i.e., the IC50) was calculated by plotting the % effect versus test ligand concentration and fitting the data using the Genedata Screener Smart fit algorithm.
Background: Time-resolved FRET reads energy transfer from a long-lived donor to a nearby acceptor.

Regarding `COC(=O)CC(c1ccc(NC(=O)C2c3ccc(S(C)(=O)=O)cc3CN2C(C)=O)cc1)(C(F)(F)F)C(F)(F)F` (stereo not drawn) [Example 32, Methyl 3-[4-({[2-acetyl-5-(methylsulfonyl)-2,3-dihydro-1H-isoindol-1-yl]carbonyl}amino)phenyl]-4,4,4-trifluoro-3-(trifluoromethyl)butanoate], the IC50 in assay [1] was 25.1 nM; with human TH17 cells, 15.8 nM; in assay [2] it was 50.1 nM.

Take `CC(=O)N1Cc2cc(S(C)(=O)=O)ccc2C1C(=O)Nc1ccc(C(N2CCCC2)(C(F)(F)F)C(F)(F)F)cc1` (stereo not drawn) [Example 15, 2-Acetyl-N-{4-[1,1,1,3,3,3-hexafluoro-2-(pyrrolidin-1-yl)propan-2-yl]phenyl}-5-(methylsulfonyl)-2,3-dihydro-1H-isoindole-1-carboxamide]: the results for the IC50 (in assay [1]; in the assay with human TH17 cells; in assay [2]) were 5.01 nM, 3.98 nM and 39.8 nM, respectively.

As to `COC(=O)CC(c1ccc(NC(=O)C2NCc3cc(S(C)(=O)=O)ccc32)cc1)(C(F)(F)F)C(F)(F)F` (stereo not drawn) [Example 31, Methyl 4,4,4-trifluoro-3-[4-[(5-methylsulfonylisoindoline-1-carbonyl)amino]phenyl]-3-(trifluoromethyl)butanoate], the IC50 in assay [1] is 794 nM; with human TH17 cells, 200 nM; in assay [2] it was 200 nM.

`CC(=O)N1Cc2cc(S(=O)(=O)CC3CC3)ccc2C1C(=O)Nc1ccc(C(C#N)(C(F)(F)F)C(F)(F)F)cc1` (stereo not drawn) [Example 13, 2-Acetyl-N-[4-(2-cyano-1,1,1,3,3,3-hexafluoropropan-2-yl)phenyl]-5-[(cyclopropylmethyl)sulfonyl]-2,3-dihydro-1H-isoindole-1-carboxamide]: the IC50 in assay [1] is 6.31 nM; in the assay on human TH17 cells it was 5.01 nM; in assay [2] it was 63.1 nM.

Turning to `N#CC(c1ccc(NC(=O)C2NCc3cc(S(=O)(=O)CC4CC4)ccc32)cc1)(C(F)(F)F)C(F)(F)F` (stereo not drawn) [Example 12, N-[4-(2-Cyano-1,1,1,3,3,3-hexafluoropropan-2-yl)phenyl]-5-[(cyclopropylmethyl)sulfonyl]-2,3-dihydro-1H-isoindole-1-carboxamide], the IC50 in assay [1] is 7.94 nM; in the assay on human TH17 cells, 25.1 nM; in assay [2], 100 nM.

Consider `COC1(CNC(c2ccc(NC(=O)C3c4ccc(S(C)(=O)=O)cc4CN3C(C)=O)cc2)(C(F)(F)F)C(F)(F)F)CC1` (stereo not drawn) [Example 18, 2-Acetyl-N-[4-(1,1,1,3,3,3-hexafluoro-2-{[(1-methoxycyclopropyl)methyl]amino}propan-2-yl)phenyl]-5-(methylsulfonyl)-2,3-dihydro-1H-isoindole-1-carboxamide], for which the figures for the IC50 (in assay [1]; with human TH17 cells; in assay [2]) were 50.1 nM, 25.1 nM and 200 nM, respectively.

Regarding `COC1(C(=O)N2Cc3cc(S(C)(=O)=O)ccc3C2C(=O)Nc2ccc(C(C#N)(C(F)(F)F)C(F)(F)F)cc2)CC1` (stereo not drawn) [Example 3, N-[4-(2-Cyano-1,1,1,3,3,3-hexafluoropropan-2-yl)phenyl]-2-[(1-methoxycyclopropyl)carbonyl]-5-(methylsulfonyl)-2,3-dihydro-1H-isoindole-1-carboxamide], the IC50 in assay [1] was 20 nM; in the assay with human TH17 cells it was 15.8 nM; in assay [2], 251 nM.

With `CCS(=O)(=O)c1ccc2c(c1)CN(C(C)=O)C2C(=O)Nc1ccc(C(C#N)(C(F)(F)F)C(F)(F)F)cc1` (stereo not drawn) [Example 14, 2-Acetyl-N-[4-(2-cyano-1,1,1,3,3,3-hexafluoropropan-2-yl)phenyl]-5-(ethylsulfonyl)-2,3-dihydro-1H-isoindole-1-carboxamide], the IC50 is 5.01 nM in assay [1], 2.51 nM in the assay with human TH17 cells and 39.8 nM in assay [2].

Regarding `CC(=O)N1Cc2cc(S(C)(=O)=O)ccc2C1C(=O)Nc1ccc(C(NC2CCOCC2)(C(F)(F)F)C(F)(F)F)cc1` (stereo not drawn) [Example 20, 2-Acetyl-N-{4-[1,1,1,3,3,3-hexafluoro-2-(tetrahydro-2H-pyran-4-ylamino)propan-2-yl]phenyl}-5-(methylsulfonyl)-2,3-dihydro-1H-isoindole-1-carboxamide], the IC50 was 100 nM in assay [1], 50.1 nM in the assay on human TH17 cells and 100 nM in assay [2].

Regarding `CS(=O)(=O)c1ccc2c(c1)CNC2C(=O)Nc1ccc(C(C#N)(C(F)(F)F)C(F)(F)F)cc1` (stereo not drawn) [Example 1, N-[4-(2-Cyano-1,1,1,3,3,3-hexafluoropropan-2-yl)phenyl]-5-(methylsulfonyl)-2,3-dihydro-1H-isoindole-1-carboxamide], the IC50 in assay [1] was 200 nM; in the assay on human TH17 cells, 100 nM; in assay [2], 126 nM.

As to `CC(=O)N1Cc2cc(S(C)(=O)=O)ccc2C1C(=O)Nc1ccc(C(Cc2nc(C)no2)(C(F)(F)F)C(F)(F)F)cc1` (stereo not drawn) [Example 34, 2-Acetyl-N-(4-{1,1,1,3,3,3-hexafluoro-2-[(3-methyl-1,2,4-oxadiazol-5-yl)methyl]propan-2-yl}phenyl)-5-(methylsulfonyl)-2,3-dihydro-1H-isoindole-1-carboxamide], the IC50 in assay [1] is 20 nM; in the assay with human TH17 cells, 20 nM; in assay [2], 126 nM.

`CC(=O)N1Cc2cc(S(C)(=O)=O)ccc2C1C(=O)Nc1ccc(C(CC(=O)NCCF)(C(F)(F)F)C(F)(F)F)cc1` (stereo not drawn) [Example 41, 2-Acetyl-5-(methylsulfonyl)-N-(4-{1,1,1-trifluoro-4-[(2-fluoroethyl)amino]-4-oxo-2-(trifluoromethyl)butan-2-yl}phenyl)-2,3-dihydro-1H-isoindole-1-carboxamide]: the results for the IC50 (in assay [1]; in the assay on human TH17 cells; in assay [2]) were 794 nM, more than 3160 nM and 316 nM, respectively.
